Test results taken from PubChem BioAssay (NCI).
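All cell lines were grown in 96-well plates and treated with compound for 48 hours. The concentration for full growth arrest is given as TGI.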

Tests used:
Test in all cases: inhibition of tumour cell growth, NCI panel, 48 h
786-0 renal = system: 786-0 renal
A498 renal = system: A498 renal
A549 NSCLC = system: A549 NSCLC
ACHN renal = system: ACHN renal
BT-549 breast = system: BT-549 breast
CAKI-1 renal = system: CAKI-1 renal
CCRF-CEM leukemia = system: CCRF-CEM leukemia
COLO 205 colon = system: COLO 205 colon
EKVX NSCLC = system: EKVX NSCLC
HCC-2998 colon = system: HCC-2998 colon
HCT-116 colon = system: HCT-116 colon
HCT-15 colon = system: HCT-15 colon
HL-60(TB) leukemia = system: HL-60(TB) leukemia
HOP-62 NSCLC = system: HOP-62 NSCLC
HOP-92 NSCLC = system: HOP-92 NSCLC
HS 578T breast = system: HS 578T breast
HT29 colon = system: HT29 colon
IGROV1 ovarian = system: IGROV1 ovarian
K-562 leukemia = system: K-562 leukemia
KM12 colon = system: KM12 colon
LOX IMVI melanoma = system: LOX IMVI melanoma
M14 melanoma = system: M14 melanoma
MALME-3M melanoma = system: MALME-3M melanoma
MCF7 breast = system: MCF7 breast
MDA-MB-231 breast = system: MDA-MB-231 breast
MDA-MB-435 = system: MDA-MB-435
MDA-N = system: MDA-N
NCI-H226 lung = system: NCI-H226 lung
NCI-H23 lung = system: NCI-H23 lung
NCI-H460 lung = system: NCI-H460 lung
NCI-H522 lung = system: NCI-H522 lung
NCI/ADR-RES ovarian = system: NCI/ADR-RES ovarian
OVCAR-3 ovarian = system: OVCAR-3 ovarian
OVCAR-4 ovarian = system: OVCAR-4 ovarian
OVCAR-5 ovarian = system: OVCAR-5 ovarian
OVCAR-8 ovarian = system: OVCAR-8 ovarian
PC-3 prostate = system: PC-3 prostate
RPMI-8226 leukemia = system: RPMI-8226 leukemia
SF-268 CNS = system: SF-268 CNS
SF-295 CNS = system: SF-295 CNS
SF-539 CNS = system: SF-539 CNS
SK-MEL-2 melanoma = system: SK-MEL-2 melanoma
SK-MEL-28 melanoma = system: SK-MEL-28 melanoma
SK-MEL-5 melanoma = system: SK-MEL-5 melanoma
SK-OV-3 ovarian = system: SK-OV-3 ovarian
SN12C renal = system: SN12C renal
SNB-19 CNS = system: SNB-19 CNS
SR leukemia = system: SR leukemia
SW-620 colon = system: SW-620 colon
TK-10 renal = system: TK-10 renal
U251 CNS = system: U251 CNS
UACC-257 melanoma = system: UACC-257 melanoma
UACC-62 melanoma = system: UACC-62 melanoma
UO-31 renal = system: UO-31 renal
MOLT-4 leukemia = system: MOLT-4 leukemia
RXF 393 renal = system: RXF 393 renal
SNB-75 CNS = system: SNB-75 CNS
DU-145 prostate = system: DU-145 prostate
T-47D breast = system: T-47D breast

## NC(=O)SCC(=O)Nc1ccc2ncccc2c1
786-0 renal
  TGI: 67.6 µM
A498 renal
  TGI: > 100 µM
A549 NSCLC
  TGI: > 100 µM
ACHN renal
  TGI: > 100 µM
BT-549 breast
  TGI: > 100 µM
CAKI-1 renal
  TGI: > 100 µM
CCRF-CEM leukemia
  TGI: > 100 µM
COLO 205 colon
  TGI: > 100 µM
EKVX NSCLC
  TGI: > 100 µM
HCC-2998 colon
  TGI: > 100 µM
HCT-116 colon
  TGI: > 100 µM
HCT-15 colon
  TGI: > 100 µM
HL-60(TB) leukemia
  TGI: > 100 µM
HOP-62 NSCLC
  TGI: > 100 µM
HOP-92 NSCLC
  TGI: > 100 µM
HS 578T breast
  TGI: > 100 µM
HT29 colon
  TGI: > 100 µM
IGROV1 ovarian
  TGI: > 100 µM
K-562 leukemia
  TGI: > 100 µM
KM12 colon
  TGI: > 100 µM
LOX IMVI melanoma
  TGI: > 100 µM
M14 melanoma
  TGI: > 100 µM
MALME-3M melanoma
  TGI: > 100 µM
MCF7 breast
  TGI: > 100 µM
MDA-MB-231 breast
  TGI: > 100 µM
MDA-MB-435
  TGI: > 100 µM
MDA-N
  TGI: > 100 µM
NCI-H226 lung
  TGI: > 100 µM
NCI-H23 lung
  TGI: > 100 µM
NCI-H460 lung
  TGI: > 100 µM
NCI-H522 lung
  TGI: 69.3 µM
NCI/ADR-RES ovarian
  TGI: > 100 µM
OVCAR-3 ovarian
  TGI: > 100 µM
OVCAR-4 ovarian
  TGI: > 100 µM
OVCAR-5 ovarian
  TGI: > 100 µM
OVCAR-8 ovarian
  TGI: > 100 µM
PC-3 prostate
  TGI: > 100 µM
RPMI-8226 leukemia
  TGI: 76.9 µM
SF-268 CNS
  TGI: > 100 µM
SF-295 CNS
  TGI: > 100 µM
SF-539 CNS
  TGI: > 100 µM
SK-MEL-2 melanoma
  TGI: > 100 µM
SK-MEL-28 melanoma
  TGI: > 100 µM
SK-MEL-5 melanoma
  TGI: > 100 µM
SK-OV-3 ovarian
  TGI: > 100 µM
SN12C renal
  TGI: > 100 µM
SNB-19 CNS
  TGI: > 100 µM
SR leukemia
  TGI: > 100 µM
SW-620 colon
  TGI: > 100 µM
TK-10 renal
  TGI: > 100 µM
U251 CNS
  TGI: 48.7 µM
UACC-257 melanoma
  TGI: > 100 µM
UACC-62 melanoma
  TGI: > 100 µM
UO-31 renal
  TGI: > 100 µM

## CC(C)(O)CCc1ccc(O)c2c(=O)c3c(O)c4c(cc3oc12)O[C@H]1OC=C[C@@]41O
786-0 renal
  TGI: > 64 µM
A549 NSCLC
  TGI: > 100 µM
ACHN renal
  TGI: < 0.01 µM
BT-549 breast
  TGI: > 62.5 µM
CAKI-1 renal
  TGI: < 0.0318 µM
CCRF-CEM leukemia
  TGI: > 100 µM
COLO 205 colon
  TGI: 0.378 µM
EKVX NSCLC
  TGI: > 61.2 µM
HCC-2998 colon
  TGI: < 0.0176 µM
HCT-116 colon
  TGI: 4.52 µM
HCT-15 colon
  TGI: 14.6 µM
HOP-62 NSCLC
  TGI: 2.43 µM
HOP-92 NSCLC
  TGI: 14.8 µM
HS 578T breast
  TGI: 41.6 µM
HT29 colon
  TGI: > 100 µM
IGROV1 ovarian
  TGI: 0.252 µM
K-562 leukemia
  TGI: > 100 µM
KM12 colon
  TGI: 11.3 µM
LOX IMVI melanoma
  TGI: > 100 µM
MCF7 breast
  TGI: < 0.01 µM
MDA-MB-231 breast
  TGI: > 100 µM
MDA-MB-435
  TGI: < 0.01 µM
MDA-N
  TGI: 0.0142 µM
MOLT-4 leukemia
  TGI: 0.422 µM
NCI-H226 lung
  TGI: 0.162 µM
NCI-H23 lung
  TGI: 0.64 µM
NCI-H460 lung
  TGI: 20.7 µM
NCI-H522 lung
  TGI: 18.3 µM
NCI/ADR-RES ovarian
  TGI: 0.298 µM
OVCAR-3 ovarian
  TGI: < 0.01 µM
OVCAR-4 ovarian
  TGI: 0.222 µM
OVCAR-5 ovarian
  TGI: 8.74 µM
OVCAR-8 ovarian
  TGI: 0.273 µM
PC-3 prostate
  TGI: > 35.1 µM
RPMI-8226 leukemia
  TGI: > 33.6 µM
RXF 393 renal
  TGI: 1.44 µM
SF-268 CNS
  TGI: 8.54 µM
SF-295 CNS
  TGI: 25.3 µM
SF-539 CNS
  TGI: 6.76 µM
SK-MEL-2 melanoma
  TGI: < 0.01 µM
SK-MEL-28 melanoma
  TGI: 1.38 µM
SK-OV-3 ovarian
  TGI: 13.2 µM
SN12C renal
  TGI: > 100 µM
SNB-19 CNS
  TGI: > 59.5 µM
SNB-75 CNS
  TGI: 10.1 µM
SR leukemia
  TGI: > 100 µM
SW-620 colon
  TGI: 27.8 µM
TK-10 renal
  TGI: > 100 µM
U251 CNS
  TGI: 0.0396 µM
UACC-257 melanoma
  TGI: 0.291 µM
UACC-62 melanoma
  TGI: < 0.01 µM
UO-31 renal
  TGI: 0.414 µM

## CS/C=C\C(=O)O[C@H]1C[C@@H]2[C@@H](O)c3occ(C)c3C[C@]2(C)[C@@H](C)C1
786-0 renal
  TGI: 30.2 µM
ACHN renal
  TGI: 63.2 µM
CAKI-1 renal
  TGI: > 100 µM
CCRF-CEM leukemia
  TGI: > 100 µM
COLO 205 colon
  TGI: 35.6 µM
DU-145 prostate
  TGI: 90.3 µM
EKVX NSCLC
  TGI: > 100 µM
HCC-2998 colon
  TGI: 85.7 µM
HCT-116 colon
  TGI: 31.4 µM
HCT-15 colon
  TGI: 95.1 µM
HL-60(TB) leukemia
  TGI: 43.8 µM
HOP-62 NSCLC
  TGI: 40.9 µM
HOP-92 NSCLC
  TGI: 65.6 µM
HS 578T breast
  TGI: 71.5 µM
HT29 colon
  TGI: 51.8 µM
IGROV1 ovarian
  TGI: 40.3 µM
K-562 leukemia
  TGI: 47 µM
KM12 colon
  TGI: > 100 µM
LOX IMVI melanoma
  TGI: 32.8 µM
M14 melanoma
  TGI: 38.5 µM
MALME-3M melanoma
  TGI: 35.6 µM
MCF7 breast
  TGI: 57.4 µM
MDA-MB-231 breast
  TGI: 41.7 µM
MDA-MB-435
  TGI: 43.6 µM
MDA-N
  TGI: 47.2 µM
MOLT-4 leukemia
  TGI: 56.3 µM
NCI-H226 lung
  TGI: 28.7 µM
NCI-H23 lung
  TGI: 85.8 µM
NCI-H460 lung
  TGI: 60.7 µM
NCI-H522 lung
  TGI: 71.7 µM
NCI/ADR-RES ovarian
  TGI: 42.3 µM
OVCAR-3 ovarian
  TGI: 31 µM
OVCAR-4 ovarian
  TGI: 51.6 µM
OVCAR-5 ovarian
  TGI: > 100 µM
OVCAR-8 ovarian
  TGI: 50.4 µM
PC-3 prostate
  TGI: > 100 µM
RPMI-8226 leukemia
  TGI: 79.9 µM
RXF 393 renal
  TGI: 47.2 µM
SF-268 CNS
  TGI: 82.3 µM
SF-295 CNS
  TGI: 77 µM
SF-539 CNS
  TGI: 37.7 µM
SK-MEL-28 melanoma
  TGI: 35.9 µM
SK-MEL-5 melanoma
  TGI: 28.2 µM
SK-OV-3 ovarian
  TGI: > 100 µM
SN12C renal
  TGI: 30.2 µM
SNB-19 CNS
  TGI: > 100 µM
SR leukemia
  TGI: 99.4 µM
SW-620 colon
  TGI: > 100 µM
T-47D breast
  TGI: 76.9 µM
TK-10 renal
  TGI: > 100 µM
U251 CNS
  TGI: 7.93 µM
UACC-257 melanoma
  TGI: 30.5 µM
UACC-62 melanoma
  TGI: 37.9 µM

## O=[N+]([O-])c1ccc(O)c(C=NCC2CCCN3CCCCC23)c1 (configuration not stated)
786-0 renal
  TGI: > 100 µM
A549 NSCLC
  TGI: > 100 µM
ACHN renal
  TGI: 89.1 µM
BT-549 breast
  TGI: > 100 µM
CAKI-1 renal
  TGI: > 100 µM
COLO 205 colon
  TGI: 75.9 µM
DU-145 prostate
  TGI: > 100 µM
EKVX NSCLC
  TGI: > 100 µM
HCC-2998 colon
  TGI: 74.5 µM
HCT-116 colon
  TGI: > 100 µM
HCT-15 colon
  TGI: > 100 µM
HOP-62 NSCLC
  TGI: > 100 µM
HS 578T breast
  TGI: 46.6 µM
HT29 colon
  TGI: > 100 µM
IGROV1 ovarian
  TGI: > 100 µM
KM12 colon
  TGI: > 100 µM
LOX IMVI melanoma
  TGI: > 100 µM
M14 melanoma
  TGI: 53.2 µM
MALME-3M melanoma
  TGI: > 100 µM
MCF7 breast
  TGI: > 100 µM
MDA-MB-231 breast
  TGI: > 100 µM
MDA-N
  TGI: > 100 µM
NCI-H226 lung
  TGI: 89.9 µM
NCI-H23 lung
  TGI: > 100 µM
NCI-H460 lung
  TGI: > 100 µM
NCI-H522 lung
  TGI: > 100 µM
NCI/ADR-RES ovarian
  TGI: > 100 µM
OVCAR-3 ovarian
  TGI: > 100 µM
OVCAR-5 ovarian
  TGI: > 100 µM
OVCAR-8 ovarian
  TGI: > 100 µM
PC-3 prostate
  TGI: > 100 µM
RXF 393 renal
  TGI: 59.7 µM
SF-268 CNS
  TGI: 75.5 µM
SF-295 CNS
  TGI: > 100 µM
SF-539 CNS
  TGI: > 100 µM
SK-MEL-5 melanoma
  TGI: 69.9 µM
SK-OV-3 ovarian
  TGI: > 100 µM
SNB-19 CNS
  TGI: > 100 µM
SNB-75 CNS
  TGI: > 100 µM
TK-10 renal
  TGI: > 100 µM
UACC-257 melanoma
  TGI: > 100 µM
UACC-62 melanoma
  TGI: 78.8 µM
UO-31 renal
  TGI: > 100 µM
